From ChEMBL document CHEMBL1159212, “Microbial metabolites of ophiobolin A and antimicrobial evaluation of ophiobolins” (1995)
Converted amounts (≈) assume the structure as drawn. The source made the active and inactive calls. The calls are words filed in the database; no cut-off is given here.

Key:
Candida albicans = test: Antifungal activity against Candida albicans by agar-well diffusion assay; assay type: functional; conditions: for MIC: Candida albicans
Cryptococcus neoformans = test: Antifungal activity against Cryptococcus neoformans by agar-well diffusion assay; assay type: functional
[1] = tested on: Trichophyton mentagrophytes; test: Antifungal activity against Trichophyton mentagrophytes by agar-well diffusion assay; assay type: functional; conditions: for MIC: Trichophyton mentagrophytes
Escherichia coli = test: Antibacterial activity against Escherichia coli by agar-well diffusion assay; assay type: functional, organism-based
Staphylococcus aureus = test: Antibacterial activity against Staphylococcus aureus by agar-well diffusion assay; assay type: functional
[2] = tested on: Mycobacterium intracellulare; test: Antibacterial activity against Mycobacterium intercellulare by agar-well diffusion assay; assay type: functional
Aspergillus flavus = test: Antifungal activity against Aspergillus flavus by agar-well diffusion assay; assay type: functional
Candida = test: Antifungal activity against Torulopsis cremoris by agar-well diffusion assay; assay type: functional
Yarrowia deformans = test: Antifungal activity against Torulopsis petrophilum by agar-well diffusion assay; assay type: functional

| SMILES | Activity (Candida albicans) | inhibition zone (IZ) (Cryptococcus neoformans) | inhibition zone (IZ) [1] | Activity (Escherichia coli) | inhibition zone (IZ) (Staphylococcus aureus) | Activity [2] | MIC (Candida albicans) [µg/mL] | MIC [1] [µg/mL] | MIC (Aspergillus flavus) [µg/mL] | MIC (Candida) [µg/mL] | MIC (Yarrowia deformans) [µg/mL] | Activity (Staphylococcus aureus) | inhibition zone (IZ) [2] [mm] | inhibition zone (IZ) (Candida albicans) [mm] | inhibition zone (IZ) (Escherichia coli) |
| --- | --- | --- | --- | --- | --- | --- | --- | --- | --- | --- | --- | --- | --- | --- | --- |
| CC(C)=C[C@H]1C[C@H](C)[C@]2(CC[C@]3(C)C[C@H]4[C@@H]5/C(=C\C[C@H]32)C(=O)OC5(O)C[C@@]4(C)O)O1 (stereo partly specified) | inactive | <=1 mm | <=7 mm | inactive | >12 mm | inactive | – | – | – | – | – | – | – | – | – |
| C[C@@H]1[C@H](O)[C@@H](C)/C=C/C=C/C=C/C=C/C=C/C=C/C=C/[C@H](O[C@@H]2O[C@H](C)[C@@H](O)[C@H](N)[C@@H]2O)C[C@@H]2O[C@](O)(C[C@@H](O)C[C@@H](O)[C@H](O)CC[C@@H](O)C[C@@H](O)CC(=O)O[C@H]1C)C[C@H](O)[C@H]2C(=O)O [AMPHOTERICIN B] | – | – | – | – | – | – | 0.78 (≈ 0.844 µM) | 0.78 (≈ 0.844 µM) | 3.12 (≈ 3.38 µM) | 3.12 (≈ 3.38 µM) | 0.2 (≈ 0.216 µM) | – | – | – | – |
| CC(C)=C[C@H]1C[C@H](C)[C@]2(CC[C@]3(C)C[C@H]4[C@H]5/C(=C\C[C@H]32)C(=O)O[C@H]5C[C@@]4(C)O)O1 [OPHIOBOLIN A LACTONE] | inactive | 1 mm | 7 mm | inactive | – | – | – | – | – | – | – | inactive | 3 | – | – |
| CC(C)=C[C@H]1C[C@H](C)[C@]2(CC[C@]3(C)C[C@H]4[C@H](C(=O)C[C@@]4(C)O)/C(C=O)=C\C[C@H]32)O1 [OPHIOBOLIN A] | – | 3 mm | >12 mm | inactive | 7 mm | – | 125 (≈ 312 µM) | 12.5 (≈ 31.2 µM) | 25 (≈ 62.4 µM) | 0.2 (≈ 0.499 µM) | 1.56 (≈ 3.89 µM) | – | 3 | 7 | – |
| CC(C)=CCC[C@H](C)[C@@]1(O)CC[C@]2(C)C[C@H]3[C@H]4/C(=C\C[C@H]21)C(=O)O[C@H]4C[C@@]3(C)O [OPHIOBOLIN B LACTONE] | inactive | 1 mm | 7 mm | inactive | – | inactive | – | – | – | – | – | inactive | – | – | – |
| CC(C)=CCC[C@H](C)[C@@]1(O)CC[C@]2(C)C[C@H]3[C@H](C(=O)C[C@@]3(C)O)/C(C=O)=C\C[C@H]21 [OPHIOBOLIN B] | inactive | <=1 mm | 7 mm | inactive | 3 mm | inactive | – | – | – | – | – | – | – | – | – |
| CC(C)=C[C@H]1C[C@H](C)[C@]2(CC[C@]3(C)C[C@@H]4C(C)=CC(=O)[C@H]4/C(CO)=C\C[C@H]32)O1 [OPHIOBOLIN I] | inactive | 1 mm | 7 mm | inactive | – | – | – | – | – | – | – | inactive | 3 | – | – |
| CC(C)=C[C@H]1C[C@H](C)[C@]2(CC[C@]3(C)C[C@H]4[C@H]5/C(=C\C[C@H]32)C(=O)OC5(O)C[C@@]4(C)O)O1 (stereo partly specified) [OPHIOBOLIN L] | – | 3 mm | – | – | inactive | – | – | – | – | – | – | – | 3 | 1 | inactive |
